Measured values: US10662204B2 (PFIZER INC., priority 2018, dated 2020)

How the values were obtained:
KRAS G12C = KRAS G12C (Homo sapiens, UniProt P01116, G12C); assay: Cell Activity Assay: accumulation of GDP-bound KRAS G12C in MIAPaCa-2 cells (Raf-1 RBD capture, MSD readout); type: cell-based; parameters: endogenous in cells; host or cells: MIAPaCa-2; conditions: 6 hours, assay limit is 30.00
Procedure, shortened: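 IC50 came from a 4-parameter fit of Ras signal normalized between DMSO and full-inhibition controls. Readout: lysate GTP-Ras bound to immobilized Raf-1 RBD, quantified with pan-Ras antibody and MSD electrochemiluminescence. Lysates derived from MIAPaCa-2 cells treated 6 h with serially diluted compound, 0.3% DMSO.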

[1] = biological target: T1, GDP-loaded KRAS (1-169) G12C, C51S, C80L, C118S (Homo sapiens, UniProt P01116, C118S/C51S/C80L/G12C); assay: Mass Spectrometry Reactivity Assay (MSRA): covalent adduct of compound and KRAS G12C, Percent Modification; type: binding; conditions: for MSRA (% modification) 10 μM 0.50 hr / MSRA (% modification) 10 μM 0.25 hr: 10 μM compound; for MSRA (% modification) 5.0 μM 0.25 hr: 5.0 μM compound
T1 construct: GDP-loaded KRAS (1-169) G12C, C51S, C80L, C118S
Procedure, shortened: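 Covalent labelling is measured by intact mass: deconvoluted modified and unmodified peak intensities yield percent modification. Compound, usually 5 μM or 10 μM final, reacts at room temperature with 5 μM GDP-bound KRAS G12C (1-169, C51S/C80L/C118S) in Hepes pH 7.5/NaCl/glycerol, sampled at 1, 15, 30, 60 min.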

**Q.** Which IC50 (KRAS G12C) does the source give for C=CC(=O)N1CCN(c2ncnc3c(Nc4c(C)ccc5[nH]ncc45)nccc23)CC1 [Example 05, 1-(4-{8-[(5-methyl-1H-indazol-4-yl)amino]pyrido[3,4-d]pyrimidin-4-yl}piperazin-1-yl)prop-2-en-1-one] here?
**A.** Its IC50 is 29.3 µM.

**Q.** What about the “MSRA (% modification) 10 μM 0.50 hr” value [1] of the same compound?
**A.** The value was 5%.

**Q.** With C=CC(=O)N1CCN(c2nc(OCC3CCN(C(C)=O)C3)nc3c(Oc4c(Cl)c(F)cc5[nH]ncc45)nccc23)CC1 (centres unmarked) [Example 05J, 1-(4-{2-[(1-acetylpyrrolidin-3-yl)methoxy]-8-[(5-chloro-6-fluoro-1H-indazol-4-yl)oxy]pyrido[3,4-d]pyrimidin-4-yl}piperazin-1-yl)prop-2-en-1-one] as the compound, how does the IC50 (KRAS G12C) read?
**A.** The IC50 was 1.07 µM.

**Q.** What about the “MSRA (% modification) 5.0 μM 0.25 hr” value [1] of the same compound?
**A.** Its value is 81%.

**Q.** For C=CC(=O)N1CCN(c2nc(OC[C@H]3CCCN3C)nc3c(Oc4c(C)c(Cl)cc5[nH]ncc45)cccc23)CC1 [Example 21E, 1-[4-(8-[(6-chloro-5-methyl-1H-indazol-4-yl)oxy]-2-{[(2R)-1-methylpyrrolidin-2-yl]methoxy}quinazolin-4-yl)piperazin-1-yl]prop-2-en-1-one], which IC50 (KRAS G12C) is on record?
**A.** Its IC50 is 0.18 µM.

**Q.** What about the “MSRA (% modification) 10 μM 0.25 hr” value [1] of the same compound?
**A.** Its value is 65%.

**Q.** Which results are given for C=CC(=O)N1CCN(c2nc(OCC3CCC(=O)N3C)nc3c(Oc4c(Cl)c(F)cc5[nH]ncc45)nc(Cl)cc23)CC1 (centres unmarked) [Example 14G, 5-[({4-(4-acryloylpiperazin-1-yl)-6-chloro-8-[(5-chloro-6-fluoro-1H-indazol-4-yl)oxy]pyrido[3,4-d]pyrimidin-2-yl}oxy)methyl]-1-methylpyrrolidin-2-one]?
**A.** IC50 (KRAS G12C): 0.401 µM; MSRA (% modification) 5.0 μM 0.25 hr [1]: 78%; MSRA (% modification) 10 μM 0.25 hr [1]: 79%

**Q.** Which IC50 (KRAS G12C) does the source give for C=CC(=O)N1CCN(c2ncnc3c(Oc4c(Cl)c(F)cc5[nH]ncc45)cccc23)C[C@H]1C [Example 17C, 1-[(2R)-4-{8-[(5-chloro-6-fluoro-1H-indazol-4-yl)oxy]quinazolin-4-yl}-2-methylpiperazin-1-yl]prop-2-en-1-one] here?
**A.** Its IC50 is 2.6 µM.

**Q.** What about the “MSRA (% modification) 10 μM 0.50 hr” value [1] of the same compound?
**A.** The value was 24%.

**Q.** With C=CC(=O)N1CCN(c2nc(OCCc3ncc[nH]3)nc3c(Oc4c(C)ccc5[nH]ncc45)cccc23)CC1 [Example 09F, 1-(4-{2-[2-(1H-imidazol-2-yl)ethoxy]-8-[(5-methyl-1H-indazol-4-yl)oxy]quinazolin-4-yl}piperazin-1-yl)prop-2-en-1-one] as the compound, how does the IC50 (KRAS G12C) read?
**A.** The IC50 was 3 µM.

**Q.** What about the “MSRA (% modification) 10 μM 0.25 hr” value [1] of the same compound?
**A.** Its value is 64%.

**Q.** What about the “MSRA (% modification) 10 μM 0.50 hr” value [1] of the same compound?
**A.** The value was 75%.

**Q.** How did the IC50 (KRAS G12C) turn out when C=CC(=O)N1CCN(c2nc(OCC3(F)CCN(C)CC3)nc3c(Oc4c(Cl)c(F)cc5[nH]ncc45)nc(Cl)cc23)CC1 [Example 15G, 1-(4-{6-chloro-8-[(5-chloro-6-fluoro-1H-indazol-4-yl)oxy]-2-[(4-fluoro-1-methylpiperidin-4-yl)methoxy]pyrido[3,4-d]pyrimidin-4-yl}piperazin-1-yl)prop-2-en-1-one] was run?
**A.** The IC50 was 0.019 µM.

**Q.** What about the “MSRA (% modification) 5.0 μM 0.25 hr” value [1] of the same compound?
**A.** The value was 80%.

**Q.** C=CC(=O)N1CCN(c2nc(OC[C@H]3CCCN3C)nc3c(Oc4c(C)ccc5[nH]ncc45)nccc23)CC1 [Example 09B, 1-[4-(8-[(5-methyl-1H-indazol-4-yl)oxy]-2-{[(2R)-1-methylpyrrolidin-2-yl]methoxy}pyrido[3,4-d]pyrimidin-4-yl)piperazin-1-yl]prop-2-en-1-one] was tested. Which IC50 (KRAS G12C) did it give?
**A.** Its IC50 is 3.1 µM.

**Q.** And the “MSRA (% modification) 10 μM 0.25 hr” value [1]?
**A.** The value was 43%.

**Q.** What does the source list for C=CC(=O)N1CCN(c2nc(Oc3cccnc3)nc3c(Oc4c(Cl)c(F)cc5[nH]ncc45)nccc23)CC1 [Example 13I, 1-(4-{8-[(5-chloro-6-fluoro-1H-indazol-4-yl)oxy]-2-(pyridin-3-yloxy)pyrido [3,4-d]pyrimidin-4-yl}piperazin-1-yl)prop-2-en-1-one]?
**A.** IC50 (KRAS G12C): 0.777 µM; MSRA (% modification) 5.0 μM 0.25 hr [1]: 44%

**Q.** With C=CC(=O)N1CCN(c2nc(OC[C@H]3CCC(=O)N3)nc3c(Oc4c(C)ccc5[nH]ncc45)cccc23)CC1 [Example 10F, (5R)-5-[({4-(4-acryloylpiperazin-1-yl)-8-[(5-methyl-1H-indazol-4-yl)oxy]quinazolin-2-yl}oxy)methyl]pyrrolidin-2-one] as the compound, how does the IC50 (KRAS G12C) read?
**A.** Its IC50 is 6.07 µM.

**Q.** And the “MSRA (% modification) 10 μM 0.25 hr” value [1]?
**A.** The value was 53%.

**Q.** What about the “MSRA (% modification) 10 μM 0.50 hr” value [1] of the same compound?
**A.** Its value is 65%.
